Article PMC11682371 (Scientific Reports, 2024)

Target: T1, recombinant human MAO-B (Homo sapiens, UniProt P27338)
T1 sequence (P27338 1-520): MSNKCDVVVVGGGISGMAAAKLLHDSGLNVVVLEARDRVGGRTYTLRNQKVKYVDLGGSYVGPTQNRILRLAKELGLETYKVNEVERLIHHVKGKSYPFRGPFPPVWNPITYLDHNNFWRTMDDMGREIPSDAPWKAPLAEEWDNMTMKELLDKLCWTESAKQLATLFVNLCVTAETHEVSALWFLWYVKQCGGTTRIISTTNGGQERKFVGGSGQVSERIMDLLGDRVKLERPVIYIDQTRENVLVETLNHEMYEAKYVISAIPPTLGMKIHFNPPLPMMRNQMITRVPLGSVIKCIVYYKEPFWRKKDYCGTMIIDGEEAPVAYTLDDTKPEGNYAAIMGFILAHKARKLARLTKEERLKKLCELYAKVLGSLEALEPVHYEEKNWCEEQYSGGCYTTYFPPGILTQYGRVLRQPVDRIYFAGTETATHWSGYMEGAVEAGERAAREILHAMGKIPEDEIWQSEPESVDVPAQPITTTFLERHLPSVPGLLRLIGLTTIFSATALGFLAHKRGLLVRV
Experiment: Reversibility of MAO-B inhibition by dialysis
Type: biochemical
Conditions: dialysis experiment

C[C@H](NCc1ccc(OCc2cccc(F)c2)cc1)C(N)=O [Safinamide]
Reversibility of MAO-B inhibition: reversible
